Assay results taken from patent publication US6656968B1, “(Z)-styryl acetoxyphenyl sulfides as cyclooxygenase inhibitors” (Temple University - Of the Commonwealth System of Higher …, priority 1999, dated 2003).

How the values were obtained:
human recombinant COX-2 = biological target: T1, human recombinant COX-2 (Homo sapiens, UniProt P35354); experiment: Cyclooxygenase enzyme assay (TLC method), COX-2; type: biochemical; settings: human recombinant COX-2, preincubation 90-120 min, [1-14C]arachidonic acid 50 μM
T1 construct: purchased Oxford Biomedical Research Inc
T1 sequence (P35354 18-604): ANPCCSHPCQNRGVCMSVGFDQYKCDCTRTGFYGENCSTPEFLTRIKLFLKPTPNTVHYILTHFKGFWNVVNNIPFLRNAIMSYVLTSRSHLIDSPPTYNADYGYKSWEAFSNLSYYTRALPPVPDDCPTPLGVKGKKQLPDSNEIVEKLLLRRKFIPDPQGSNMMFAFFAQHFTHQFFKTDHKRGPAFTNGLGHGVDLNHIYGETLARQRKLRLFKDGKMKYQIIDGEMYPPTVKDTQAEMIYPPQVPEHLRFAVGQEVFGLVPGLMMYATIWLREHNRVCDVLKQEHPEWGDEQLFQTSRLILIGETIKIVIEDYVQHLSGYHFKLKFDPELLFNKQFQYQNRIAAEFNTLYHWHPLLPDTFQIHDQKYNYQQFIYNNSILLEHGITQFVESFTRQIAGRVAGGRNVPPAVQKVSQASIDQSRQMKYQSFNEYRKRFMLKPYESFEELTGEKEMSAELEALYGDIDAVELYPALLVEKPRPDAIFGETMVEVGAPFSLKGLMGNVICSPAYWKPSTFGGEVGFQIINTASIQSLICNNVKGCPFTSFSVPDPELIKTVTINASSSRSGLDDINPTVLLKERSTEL
Protocol: The compounds of formula I are potent inhibitors of COX-2. […] The resulting radiolabeled prostanoid compounds, i.e., the products of COX-2 reaction with arachidonic acid, were quantified.
(§1) Cyclooxygenase activity of ovine COX-1 (Oxford Biomedical Research Inc.) and human recombinant COX-2 Oxford Biomedical Research Inc.) was assayed by a thin layer chromatography (TLC) method as follows. All inhibitors were dissolved in dimethyl sulfoxide to a stock solution of 5 mM. Human recombinant COX-2 (3 units) or ovine COX-1 (15 units) was incubated with inhibitors at several concentrations in a solution containing 100 mM Tris-HCl, pH7.8, 500 uM phenol and hematin for 90 to 120 minutes at room temperature (24° C.). In controls, equal volumes of DMSO without drug were added to the incubation mixture. After incubation for 90-120 minutes, [1-^14C]arachidonic acid (50 μM, 51 mCi/mmol) (DuPont NEN) was added and incubated at 37° C. for 2 minutes. The reaction was terminated by extraction with 1 ml of ethyl acetate. The ethyl acetate layer was transferred into a fresh tube and evaporated to dryness in a Speedvac vacuum dryer. The contents of the tubes were reconstituted in […] of ethyl acetate and spotted on a TLC plate (J. T. Baker, Phillipsburg, N.J.) and developed in a mobile phase containing chloroform/methanol (95:5) at4° C. Radiolabeled prostanoid compounds (the products of COX enzymatic reaction with radiolabeled arachidonic acid substrate) were quantitated with a radioactivity scanner (Fuji, Phosphorimager). The percentage of total products observed at different inhibitor concentrations was divided by the percentage of the products observed for protein samples pre incubated for the same time with DMSO.

HT29 cells [1] = experiment: Soft agar assay, HT29 cells; type: cell-based, human; settings: HT29 in soft agar
Protocol: (§2) Z-styryl 2-acetoxyphenylsulfide (Example 1) was compared to the COX-2 inhibitor celecoxib in inhibiting the growth of HT29 cells in soft agar. HT29 cells are human colorectal carcinoma cells that overexpress COX-2. HT29 cells grow in soft agar and form tumors in nude mice. The soft agar assay was performed as follows. A layer of bottom agar ([…]) was placed onto 60 mm^2 tissue culture dishes. The tumor cells were trypsinized from normal growth flasks while in exponential growth. The cells were counted by using a hemacytometer and 1.0×10^5 cells were placed into the top agar mixture containing growth medium, […] and various concentrations of drugs. The concentration range was normally between 10 μM to 75 μM. The cells were not refed during the assay system; therefore, the cells were treated with one dose of the agents. The plates were stained 20 days later with a 0.05% (w/v) nitroblue tetrazolium solution (which stains only viable cells) for 48 hours. […] The same concentration of Z-styryl 2-acetoxyphenylsulfide had little affect on the growth of monolayer cells.

DLD-1 cells = experiment: Soft agar assay, DLD-1 cells; type: cell-based, human; settings: DLD-1 in soft agar, highest concentration tested, versus untreated control cells (FIG. 1)
Protocol: as §2
The same assay was carried out with DLD-1 cells. Like HT29, DLD-1 cells are human colorectal carcinoma cells that overexpress COX-2. They grow in soft agar and form tumors in nude mice. The results are shown in FIG. 1, the y-axis being the percent of cell colonies remaining in comparison to untreated control cells.

HT29 cells [2] = experiment: Growth of monolayer cells; type: cell-based, human; settings: same concentration (10 μM)
Protocol: as §2

ovine COX-1 = biological target: T2, ovine COX-1 (Ovis aries, UniProt P05979); experiment: Cyclooxygenase enzyme assay (TLC method), COX-1; type: biochemical; settings: ovine COX-1, preincubation 90-120 min, [1-14C]arachidonic acid 50 μM
T2 construct: purchased Oxford Biomedical Research Inc
T2 sequence (P05979 25-600): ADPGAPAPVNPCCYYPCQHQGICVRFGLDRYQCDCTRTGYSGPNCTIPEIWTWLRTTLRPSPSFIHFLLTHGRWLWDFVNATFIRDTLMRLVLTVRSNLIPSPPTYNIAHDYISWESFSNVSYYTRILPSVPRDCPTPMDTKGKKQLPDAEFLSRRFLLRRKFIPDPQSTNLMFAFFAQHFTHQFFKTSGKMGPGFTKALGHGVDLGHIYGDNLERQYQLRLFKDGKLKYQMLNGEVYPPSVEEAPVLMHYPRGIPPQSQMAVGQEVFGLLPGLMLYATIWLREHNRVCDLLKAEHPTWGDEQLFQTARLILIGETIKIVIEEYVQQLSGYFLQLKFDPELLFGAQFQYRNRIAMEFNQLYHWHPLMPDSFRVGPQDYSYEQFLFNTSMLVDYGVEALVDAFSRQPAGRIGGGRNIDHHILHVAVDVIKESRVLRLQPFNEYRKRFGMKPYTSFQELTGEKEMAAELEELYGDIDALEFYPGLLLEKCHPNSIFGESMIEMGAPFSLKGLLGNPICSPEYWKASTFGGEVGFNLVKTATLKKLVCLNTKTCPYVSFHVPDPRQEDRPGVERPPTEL
Protocol: as §1

Row | SMILES | IC50 (human recombinant COX-2) [nM] | inhibition of anchorage independent growth (HT29 cells [1]; lowest concentration tested (10 μM), one dose, stained 20 days later) | concentrations at which plates were devoid of all staining cells (HT29 cells [1]; nitroblue tetrazolium stain (viable cells)) | inhibition of cell colony growth (DLD-1 cells) [%] | effect on the growth of monolayer cells (HT29 cells [2]) | IC50 (ovine COX-1) [nM]
1 | CC(=O)Oc1ccccc1S/C=C\c1ccccc1 [Example 1, Z-styryl 2-acetoxyphenylsulfide] | 150 | completely inhibited | above 20 μM | 100 | little affect | 5000
2 | CC(=O)Oc1ccccc1S/C=C\c1ccc(F)cc1 [Example 2, Z-4-Fluorostyryl 2-acetoxyphenylsulfide] | 350 | – | – | – | – | 4500
3 | CC(=O)Oc1ccccc1S/C=C\c1ccccc1Cl [Example 3, Z-2-Chlorostyryl 2-acetoxyphenylsulfide] | 250 | – | – | – | – | 4000
4 | CC(=O)Oc1ccccc1S/C=C\c1ccc(Cl)cc1 [Example 4, Z-4-Chlorostyryl 2-acetoxyphenylsulfide] | 200 | – | – | – | – | 4000
5 | CC(=O)Oc1cccc(/C=C\Sc2ccccc2OC(C)=O)c1 [Example 10, Z-3-Acetoxystyryl 2-acetoxyphenylsulfide] | 700 | – | – | – | – | 2000
